The NIST ThermoML archive (doi:10.1016/j.jct.2011.04.023)
± gives the expanded uncertainty stated by the source.

What was measured:
[1] = Molar enthalpy of transition or fusion; conditions: Crystal; DSC
[2] = Crystal; visual observation

With `CCCCCC[n+]1cccc(C)c1.Cc1ccc(S(=O)(=O)[O-])cc1` [1-hexyl-3-methylpyridinium 4-methylbenzenesulfonate] the “Molar enthalpy of transition or fusion” value [1] was 2.41 ± 0.0813 kcal/mol and the Normal melting temperature [2] was 56.2 ± 0.4 °C.
